{"source": "the supplement of paper PMC2824726", "note": "Values joined by “and” are separate entries in the source; they are usually repeats but may differ in a detail not shown here. Equal values may be shown once."}
{"test_system": "MDA-MB-231", "experiment": "shRNA barcode abundance ratio t_end/t_zero (depletion over 4 weeks of proliferation) (log2 ratio); higher = less depletion (weaker anti-proliferative effect of the shRNA)", "settings": "time after t zero 28 days", "experimental": "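Pooled lentiviral negative-selection screen of 305 pGIPZ shRNAs (Open Biosystems V2LHS clones; the 21-nt half-hairpin sense stem is embedded in a mir-30 scaffold) in MDA-MB-231 breast carcinoma cells, infected at MOI 0.3 with 0.5 ug/ml puromycin selection. Barcode abundance was read on barcode tiling microarrays (six 25-nt probes per 60-nt barcode) at t_zero (5 days post-infection) and t_end (33 days; 28 days of culture after t_zero). Values are median-normalised t_end/t_zero signal ratios, averaged over the tiling probes that passed a 10-fold background filter, from three biological replicates.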"}
{"sequence": "GCGCGAGTTCGCTTCTAATAT (targeted gene: GSX1)", "shRNA barcode abundance ratio t end/t zero (log2)": 0.174}
{"sequence": "ACGCTGATCGAGAATGGAGAA (targeted gene: NUP62)", "shRNA barcode abundance ratio t end/t zero (log2)": -0.334}
{"sequence": "CCAATTCAAGTGATCCGCAAA (targeted gene: BAG3)", "shRNA barcode abundance ratio t end/t zero (log2)": 0.175}
{"sequence": "GCATGTAATAGAGTGTGCTAA (targeted gene: MSH2)", "shRNA barcode abundance ratio t end/t zero (log2)": 1.01}
{"sequence": "GGAGAGAACTGTCATTTCTAA (targeted gene: IGF1R)", "shRNA barcode abundance ratio t end/t zero (log2)": 0.393}
{"sequence": "CGGACCTTAGTGAATATAAAT (targeted gene: OPA1)", "shRNA barcode abundance ratio t end/t zero (log2)": -0.0398}
{"sequence": "ACAGTTTGAGTCAACTAGAAT (targeted gene: CD28)", "shRNA barcode abundance ratio t end/t zero (log2)": 0.508}
{"sequence": "CGGAGAGTTATCCTGATAAAT (targeted gene: SFRP1)", "shRNA barcode abundance ratio t end/t zero (log2)": -0.114}
{"sequence": "GCAGAAGCTCTCCAAATTGAA (targeted gene: APAF1)", "shRNA barcode abundance ratio t end/t zero (log2)": 0.521}
{"sequence": "CCAACATATCTCACTCTAGAA (targeted gene: BARD1)", "shRNA barcode abundance ratio t end/t zero (log2)": 0.531}
{"sequence": "GGACTTCAGCAGAAATCTTTA (targeted gene: CASP8)", "shRNA barcode abundance ratio t end/t zero (log2)": 0.126}
{"sequence": "CCAACCACTTCATTCTTGAAA (targeted gene: IL10)", "shRNA barcode abundance ratio t end/t zero (log2)": "0.022 and 0.0479"}
{"sequence": "CCAATGATGCTGCTCAAGTTA (targeted gene: ABCB1)", "shRNA barcode abundance ratio t end/t zero (log2)": 0.272}
{"sequence": "GCGGTTCTTAGAAGAGTACTT (targeted gene: DAD1)", "shRNA barcode abundance ratio t end/t zero (log2)": -0.432}
{"sequence": "GGCCATGCCTGTTTACAAGAA (targeted gene: TP73)", "shRNA barcode abundance ratio t end/t zero (log2)": -0.24}
{"sequence": "CCTAGAAGCATTTATGATTTA (targeted gene: BCL2L2)", "shRNA barcode abundance ratio t end/t zero (log2)": 0.344}
{"sequence": "GGCCTGACAATGGTACCTATT (targeted gene: HDAC3)", "shRNA barcode abundance ratio t end/t zero (log2)": -1.93}
{"sequence": "CCAGCTGTTTATGCATAGATA (targeted gene: CXCR4)", "shRNA barcode abundance ratio t end/t zero (log2)": 1.87}
{"sequence": "CGGCTTTATGATGCTTATGAA (targeted gene: ANXA5)", "shRNA barcode abundance ratio t end/t zero (log2)": 0.161}
{"sequence": "CCCTGAGACCATATCCTTAAA (targeted gene: OPA1)", "shRNA barcode abundance ratio t end/t zero (log2)": -0.115}
{"sequence": "CCGAACATTAGGAATTGTTTA (targeted gene: ACVR1)", "shRNA barcode abundance ratio t end/t zero (log2)": 0.264}
{"sequence": "GCCCTGATTGTGTATATTCAT (targeted gene: BCL2)", "shRNA barcode abundance ratio t end/t zero (log2)": 0.006}
{"sequence": "TGTTAACAAATGTGGCAATTA (targeted gene: TPT1)", "shRNA barcode abundance ratio t end/t zero (log2)": 0.164}
{"sequence": "CCAGATAATATTAAGGGAAAT (targeted gene: ABCB1)", "shRNA barcode abundance ratio t end/t zero (log2)": 0.255}
{"sequence": "GGAGAAATTATTGATCCAAAT (targeted gene: NAIP)", "shRNA barcode abundance ratio t end/t zero (log2)": 0.608}
{"sequence": "GGTGCCTTGAGGAATACAGAA (targeted gene: NT5C3)", "shRNA barcode abundance ratio t end/t zero (log2)": 0.235}
{"sequence": "GGCCCAGTGTTTCTTCTGCTT (targeted gene: BIRC5)", "shRNA barcode abundance ratio t end/t zero (log2)": -0.948}
{"sequence": "GCACTTGCCTTTAAACTATGT (targeted gene: NFIA)", "shRNA barcode abundance ratio t end/t zero (log2)": 0.384}
{"sequence": "GCTAAGAGATTCGCCTTAAAT (targeted gene: SOCS3)", "shRNA barcode abundance ratio t end/t zero (log2)": 0.308}
{"sequence": "CCTCACTTTCTCCAAGAAGTT (targeted gene: MAPK8IP2)", "shRNA barcode abundance ratio t end/t zero (log2)": 0.0658}
{"sequence": "GCTGTGAGTTCTGATAGGAAT (targeted gene: XIAP)", "shRNA barcode abundance ratio t end/t zero (log2)": -0.186}
{"sequence": "CGGTATTAAGTTGTAATTTAA (targeted gene: PROK2)", "shRNA barcode abundance ratio t end/t zero (log2)": 0.137}
{"sequence": "CCTGTTATCAATCTGCTAAAT (targeted gene: FOXO1)", "shRNA barcode abundance ratio t end/t zero (log2)": 0.0156}
{"sequence": "CCTGGCTCCTCTACTGTTTAA (targeted gene: BIRC5)", "shRNA barcode abundance ratio t end/t zero (log2)": -0.954}
{"sequence": "GCTGAGGAGGCTCAAGTTAAA (targeted gene: TGFB1)", "shRNA barcode abundance ratio t end/t zero (log2)": 0.277}
{"sequence": "TCTCTTAAAGTTGATATCTTA (targeted gene: TNFAIP3)", "shRNA barcode abundance ratio t end/t zero (log2)": 0.213}
{"sequence": "GGTATTCTCATCAAGAAACTT (targeted gene: BCL2A1)", "shRNA barcode abundance ratio t end/t zero (log2)": 0.349}
{"sequence": "GCCTACAGCTGCCTCCTAGAA (targeted gene: ANXA4)", "shRNA barcode abundance ratio t end/t zero (log2)": 0.417}
{"sequence": "GGAACTTTAGTTGAAGCGTAA (targeted gene: APAF1)", "shRNA barcode abundance ratio t end/t zero (log2)": 0.303}
{"sequence": "GGGCAAGTTTCCATCATCTAT (targeted gene: TDGF1)", "shRNA barcode abundance ratio t end/t zero (log2)": -0.11}
{"sequence": "GGATTCTCAACACTTTGAATT (targeted gene: ANXA4)", "shRNA barcode abundance ratio t end/t zero (log2)": 0.244}
{"sequence": "GCTATACGAATGGGATTTGAT (targeted gene: BIRC8)", "shRNA barcode abundance ratio t end/t zero (log2)": 0.211}
{"sequence": "CCTGTCAATATTGATGACTTG (targeted gene: BRAF)", "shRNA barcode abundance ratio t end/t zero (log2)": 0.319}
{"sequence": "GCCAAGTTCTTAGTTGCTGTA (targeted gene: CXCR4)", "shRNA barcode abundance ratio t end/t zero (log2)": -1.59}
{"sequence": "GGCAAATCCTTGTTTAACAAA (targeted gene: BIRC6)", "shRNA barcode abundance ratio t end/t zero (log2)": 0.616}
{"sequence": "GCTCAACAGATCCAATTTCAT (targeted gene: RBKS)", "shRNA barcode abundance ratio t end/t zero (log2)": -0.0517}
{"sequence": "GGCCATTATGCACAGGTTGAA (targeted gene: CD40LG)", "shRNA barcode abundance ratio t end/t zero (log2)": 0.119}
{"sequence": "CCATTCTGATTCTTCAGTCAT (targeted gene: TOPORS)", "shRNA barcode abundance ratio t end/t zero (log2)": 0.459}
{"sequence": "GGACTCTAGAATGTCCATATT (targeted gene: NUAK2)", "shRNA barcode abundance ratio t end/t zero (log2)": 0.326}
{"sequence": "TGGGAAGAACTTTAAGGATAT (targeted gene: SORT1)", "shRNA barcode abundance ratio t end/t zero (log2)": -0.167}
{"sequence": "GCACCTAGTGTCCAGATTCAT (targeted gene: HDAC3)", "shRNA barcode abundance ratio t end/t zero (log2)": 0.129}
{"sequence": "CCCAGCAATAATTTAAACTTA (targeted gene: WRN)", "shRNA barcode abundance ratio t end/t zero (log2)": 0.168}
{"sequence": "GCTGCTTCTGTCTGGTTTATT (targeted gene: THY1)", "shRNA barcode abundance ratio t end/t zero (log2)": -0.0341}
{"sequence": "GCTGTAACTACTTTATAACTA (targeted gene: RHOA)", "shRNA barcode abundance ratio t end/t zero (log2)": -0.0204}
{"sequence": "GGAAATTCTTTCACTTCATTA (targeted gene: MCL1)", "shRNA barcode abundance ratio t end/t zero (log2)": 0.208}
{"sequence": "CGAGTTTGTGGACTCCTTTAA (targeted gene: BAD)", "shRNA barcode abundance ratio t end/t zero (log2)": -0.185}
{"sequence": "CCAAGTAGACTCACTCCTTAA (targeted gene: BAG4)", "shRNA barcode abundance ratio t end/t zero (log2)": -0.102}
{"sequence": "CCTGCCCATTAGAGAAGTATT (targeted gene: VHL)", "shRNA barcode abundance ratio t end/t zero (log2)": -0.221}
{"sequence": "GCACAGCATCAAACCAAGTTA (targeted gene: MLH1)", "shRNA barcode abundance ratio t end/t zero (log2)": 0.165}
{"sequence": "GAGGATTATGGCTAACAAGAA (targeted gene: MCL1)", "shRNA barcode abundance ratio t end/t zero (log2)": 0.27}
{"sequence": "GCTGCCAAACTTCAGATAATA (targeted gene: NT5C3)", "shRNA barcode abundance ratio t end/t zero (log2)": 0.163}
{"sequence": "GCTCTGTACTTCAACCCAATT (targeted gene: BFAR)", "shRNA barcode abundance ratio t end/t zero (log2)": 0.0174}
{"sequence": "CCTCACCCTGTACCAGTCCAA (targeted gene: GSTP1)", "shRNA barcode abundance ratio t end/t zero (log2)": -0.648}
{"sequence": "GCCCTGTACTTTAACCCAATT (targeted gene: BFAR)", "shRNA barcode abundance ratio t end/t zero (log2)": 0.0378}
{"sequence": "CCATATGTTCATTACATACAT (targeted gene: FANCF)", "shRNA barcode abundance ratio t end/t zero (log2)": 0.17}
{"sequence": "CGAACTCCTCTTCTCAGTTAA (targeted gene: IGF1R)", "shRNA barcode abundance ratio t end/t zero (log2)": 0.302}
{"sequence": "GAACTAGATCTGTTGCTTAAT (targeted gene: AVEN)", "shRNA barcode abundance ratio t end/t zero (log2)": 0.231}
{"sequence": "GCAAGCAGTCTTGTGAGTTAA (targeted gene: RASA1)", "shRNA barcode abundance ratio t end/t zero (log2)": "-0.169 and -0.167"}
{"sequence": "GGCCAGAATATCATTGTCATA (targeted gene: RBKS)", "shRNA barcode abundance ratio t end/t zero (log2)": -0.309}
{"sequence": "CCAAATTATGTGTTTCCGAAA (targeted gene: IGF1R)", "shRNA barcode abundance ratio t end/t zero (log2)": 0.502}
{"sequence": "CCAGAAGAGCCTATTACATCT (targeted gene: SOCS3)", "shRNA barcode abundance ratio t end/t zero (log2)": 0.25}
{"sequence": "GCAATTGAGAGCATTCTTAAA (targeted gene: IL3)", "shRNA barcode abundance ratio t end/t zero (log2)": -0.0688}
{"sequence": "GGGAATCCAGTGTGTGAAGAA (targeted gene: RELA)", "shRNA barcode abundance ratio t end/t zero (log2)": 0.121}
{"sequence": "CCACCTGGACTCCTATGAGAA (targeted gene: SOCS3)", "shRNA barcode abundance ratio t end/t zero (log2)": 0.145}
{"sequence": "GCCACATGTCTTTGCTTGATA (targeted gene: NAIP)", "shRNA barcode abundance ratio t end/t zero (log2)": 0.453}
{"sequence": "GCTTGTTGTTTGAGAAGTTTA (targeted gene: BAG3)", "shRNA barcode abundance ratio t end/t zero (log2)": 0.38}
{"sequence": "GCAAATTTCATGACCAGTAAA (targeted gene: TDGF1)", "shRNA barcode abundance ratio t end/t zero (log2)": -0.234}
{"sequence": "GGTAGCAATTGCCTGAATAAT (targeted gene: IL7)", "shRNA barcode abundance ratio t end/t zero (log2)": -0.149}
{"sequence": "CGACTTAGACTTGACCTATAT (targeted gene: PTEN)", "shRNA barcode abundance ratio t end/t zero (log2)": -0.304}
{"sequence": "GCTGGCAATTACCAGAACAAT (targeted gene: WRN)", "shRNA barcode abundance ratio t end/t zero (log2)": 0.0875}
{"sequence": "AGGCCTAGAGGTAACCAATAA (targeted gene: PRDX2)", "shRNA barcode abundance ratio t end/t zero (log2)": -0.0855}
{"sequence": "ACTGCTGTACTGGTTTGCAAA (targeted gene: BNIP2)", "shRNA barcode abundance ratio t end/t zero (log2)": 0.104}
{"sequence": "ACTTCAGAAATGGCACGATAA (targeted gene: AATF)", "shRNA barcode abundance ratio t end/t zero (log2)": 0.24}
{"sequence": "CCTCAGTGTCTGTTGAAGTAA (targeted gene: BIRC6)", "shRNA barcode abundance ratio t end/t zero (log2)": -0.238}
{"sequence": "CCAGAGTAACTCTAGTCAGTT (targeted gene: NUP62)", "shRNA barcode abundance ratio t end/t zero (log2)": -2.05}
{"sequence": "GCAGATGAAGATCATCGAAAT (targeted gene: BRAF)", "shRNA barcode abundance ratio t end/t zero (log2)": 0.116}
